GI50 and IC50 data for 13 compounds are collected here from patent publication US20260167619A2, “INDOLINE COMPOUNDS AND DERIVATIVES AS EGFR INHIBITORS” (BeOne Medicines I GmbH, priority 2020, published 2026).

Structures are written as SMILES.

Test [1] deals with BaF3-WT cells (Homo sapiens, UniProt P00533). Nature of the test: Cell antiproliferation assay (CellTiter-Glo), BaF3-WT. As to conditions: 48 h treatment, read-out: BaF3-WT IC50. Type of test: cell-based. Here is the method:
(§1) BaF3 cells are treated with compounds diluted in 0.2% DMSO, dilution is done according to the following protocol: (1) make 500× stock solution in DMSO from 5 mM by 5-fold dilution, total 8 doses were included; (2) make 10× solution in cell culture medium by transferring 2 μl 500× stock solution into 98 μl medium; (3) 10 μl of 10× solution is added to cells and incubate for 48 h.
(§2) After 48 h treatment, add 30 μl CellTiter-Glo reagent[CellTiter-Glo® 2.0, (Promega, Cat #G9242)] to each well; seal the plate and incubate 2 min at room temperature on a plate shaker; Allow the plate to incubate at room temperature for 10 minutes to stabilize the luminescent signal. Record luminescence on BMG PheraStar with luminescence protocol.
(§3) The IC50 value of a compound can be obtained by fitting the following equation
(§4) Wherein, X and Y are known values, and IC50, Hillslope, Top and Bottom are the parameters obtained by fitting with software. Y is the inhibition percentage (calculated from the equation), X is the concentration of the compound; IC50 is the concentration of the compound when the 50% inhibition is reached. The smaller the IC50 value is, the stronger the inhibitory ability of the compound is. Vice versa, the higher the IC50 value is, the weaker the ability the inhibitory ability of the compound is; Hillslope represents the slope of the fitted curve, generally around 1 *; Bottom represents the minimum value of the curve obtained by data fitting, which is generally 0%±20%; Top represents the maximum value of the curve obtained by data fitting, which is generally 100%±20%. The experimental data were fitted by calculating and analyzing with Dotmatics data analysis software.

In test [2] the target is BaF3-Del_TM_CS cells (Homo sapiens, UniProt P00533, T790M/C797S, cells depend on it, form not given). Nature of the test: Cell antiproliferation assay (CellTiter-Glo), BaF3-Del_TM_CS. Type of test: cell-based. As to conditions: 48 h treatment, read-out: BaF3-Del_TM_CS IC50. The protocol:
as §1, §2, §3, §4
In general terms: Cellular ATP, detected with luciferase, serves as a proxy for viable cell number.

The target in test [3] is T1, EGFR (aa668-1210, Invitrogen) (Homo sapiens, UniProt P00533).
T1 construct: EGFR (aa668-1210, Invitrogen); purchased Invitrogen
T1 sequence (P00533 668-1210): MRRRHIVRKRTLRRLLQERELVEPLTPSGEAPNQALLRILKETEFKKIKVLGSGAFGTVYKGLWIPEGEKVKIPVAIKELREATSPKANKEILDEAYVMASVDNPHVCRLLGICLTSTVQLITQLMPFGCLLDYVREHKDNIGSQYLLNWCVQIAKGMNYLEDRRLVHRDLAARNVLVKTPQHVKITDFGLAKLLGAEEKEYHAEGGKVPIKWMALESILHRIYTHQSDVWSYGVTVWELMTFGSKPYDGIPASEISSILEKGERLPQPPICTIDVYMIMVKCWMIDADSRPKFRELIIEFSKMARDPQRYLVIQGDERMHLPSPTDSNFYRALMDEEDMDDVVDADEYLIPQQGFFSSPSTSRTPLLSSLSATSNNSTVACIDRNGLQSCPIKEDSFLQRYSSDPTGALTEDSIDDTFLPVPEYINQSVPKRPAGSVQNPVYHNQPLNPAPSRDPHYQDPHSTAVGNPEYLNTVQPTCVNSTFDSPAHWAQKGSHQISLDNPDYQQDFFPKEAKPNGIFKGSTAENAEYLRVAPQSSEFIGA
Nature of the test: Biochemical EGFR inhibition assay (TR-FRET), wild-type EGFR. As to conditions: ATP at Km, 15 min pre-incubation, 60 min reaction; read-out: WT (Km ATP) IC50. Summed up:
(§5)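 Recombinant kinase pre-incubated with compound 15 min at room temperature in 50 mM HEPES pH7.5, 10 mM MgCl2, 2 mM DTT, 1 mM EGTA, 0.1% BSA, 0.01% Tween-20; reaction started with ATP at Km plus biotin-poly GT, run 60 min at RT. HTRF read (665/620 nm); IC50 from four-parameter logistic fit.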

Test [4] concerns the target T2, EGFR(L858R_T790M_C797S) (aa695-end, Invitrogen) (Homo sapiens, UniProt P00533, C797S/L858R/T790M).
T2 construct: purchased Invitrogen
Nature of the test: Biochemical EGFR inhibition assay (TR-FRET), L858R/T790M/C797S mutant. As to conditions: ATP at Km, 15 min pre-incubation, 60 min reaction; read-out: LR_TM_CS (Km ATP) IC50. Summed up:
as §5
(In TR-FRET formats the signal depends on donor and acceptor labels being close together.)

The target of test [5] is EGFR(Dell9_T790M_C797S) (aa 669-1210, in house) (Homo sapiens, UniProt P00533, T790M/C797S, form not given). Nature of the test: Biochemical EGFR inhibition assay (TR-FRET), Del19/T790M/C797S mutant. As to conditions: ATP at Km, 15 min pre-incubation, 60 min reaction; read-out: Del_TM_CS (Km ATP) IC50. Summed up:
as §5

Test [6] deals with BaF3-LR_TM_CS cells (Homo sapiens, UniProt P00533, T790M/C797S/L858R, cells depend on it). Nature of the test: Cell antiproliferation assay (CellTiter-Glo), BaF3-LR_TM_CS. As to conditions: 48 h treatment, read-out: BaF3-LR_TM_CS IC50. Type of test: cell-based. The protocol: as §1, §2, §3, §4
Sequence of BaF3-LR_TM_CS cells (P00533 whole entry T790M/C797S/L858R): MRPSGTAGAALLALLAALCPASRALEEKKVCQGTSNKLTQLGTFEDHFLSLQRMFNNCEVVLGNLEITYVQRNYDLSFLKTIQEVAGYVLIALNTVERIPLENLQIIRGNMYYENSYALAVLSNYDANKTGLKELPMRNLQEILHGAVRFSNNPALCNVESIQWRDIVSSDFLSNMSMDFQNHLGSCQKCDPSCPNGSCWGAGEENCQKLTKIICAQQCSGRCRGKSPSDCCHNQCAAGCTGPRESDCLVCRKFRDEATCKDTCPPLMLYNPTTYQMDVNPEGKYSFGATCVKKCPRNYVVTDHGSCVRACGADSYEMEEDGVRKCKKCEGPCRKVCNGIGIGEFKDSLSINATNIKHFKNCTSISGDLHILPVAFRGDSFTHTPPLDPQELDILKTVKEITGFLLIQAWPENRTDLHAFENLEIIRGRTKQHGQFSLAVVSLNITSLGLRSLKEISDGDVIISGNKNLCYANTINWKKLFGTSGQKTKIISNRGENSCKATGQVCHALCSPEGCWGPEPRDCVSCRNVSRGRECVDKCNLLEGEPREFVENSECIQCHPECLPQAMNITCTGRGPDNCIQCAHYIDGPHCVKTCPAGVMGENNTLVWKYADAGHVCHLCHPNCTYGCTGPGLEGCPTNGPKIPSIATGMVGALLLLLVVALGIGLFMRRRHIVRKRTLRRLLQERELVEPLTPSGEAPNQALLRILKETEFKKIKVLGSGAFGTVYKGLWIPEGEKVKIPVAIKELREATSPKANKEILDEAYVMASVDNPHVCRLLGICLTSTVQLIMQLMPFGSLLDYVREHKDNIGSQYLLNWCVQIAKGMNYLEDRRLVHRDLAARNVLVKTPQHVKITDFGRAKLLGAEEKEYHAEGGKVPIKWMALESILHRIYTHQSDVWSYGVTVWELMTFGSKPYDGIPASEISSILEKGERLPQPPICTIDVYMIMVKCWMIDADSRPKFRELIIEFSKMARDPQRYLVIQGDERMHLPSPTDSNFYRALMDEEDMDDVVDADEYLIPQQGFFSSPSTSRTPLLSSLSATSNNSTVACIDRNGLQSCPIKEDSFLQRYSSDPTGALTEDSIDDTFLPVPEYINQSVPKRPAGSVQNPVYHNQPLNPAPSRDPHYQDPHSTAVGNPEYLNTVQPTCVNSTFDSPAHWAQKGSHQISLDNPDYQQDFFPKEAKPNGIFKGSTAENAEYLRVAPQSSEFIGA

Sequence of EGFR(Dell9_T790M_C797S) (aa 669-1210, in house) (P00533 with tags, fused parts or gaps DEL746-750/T790M/C797S, form open): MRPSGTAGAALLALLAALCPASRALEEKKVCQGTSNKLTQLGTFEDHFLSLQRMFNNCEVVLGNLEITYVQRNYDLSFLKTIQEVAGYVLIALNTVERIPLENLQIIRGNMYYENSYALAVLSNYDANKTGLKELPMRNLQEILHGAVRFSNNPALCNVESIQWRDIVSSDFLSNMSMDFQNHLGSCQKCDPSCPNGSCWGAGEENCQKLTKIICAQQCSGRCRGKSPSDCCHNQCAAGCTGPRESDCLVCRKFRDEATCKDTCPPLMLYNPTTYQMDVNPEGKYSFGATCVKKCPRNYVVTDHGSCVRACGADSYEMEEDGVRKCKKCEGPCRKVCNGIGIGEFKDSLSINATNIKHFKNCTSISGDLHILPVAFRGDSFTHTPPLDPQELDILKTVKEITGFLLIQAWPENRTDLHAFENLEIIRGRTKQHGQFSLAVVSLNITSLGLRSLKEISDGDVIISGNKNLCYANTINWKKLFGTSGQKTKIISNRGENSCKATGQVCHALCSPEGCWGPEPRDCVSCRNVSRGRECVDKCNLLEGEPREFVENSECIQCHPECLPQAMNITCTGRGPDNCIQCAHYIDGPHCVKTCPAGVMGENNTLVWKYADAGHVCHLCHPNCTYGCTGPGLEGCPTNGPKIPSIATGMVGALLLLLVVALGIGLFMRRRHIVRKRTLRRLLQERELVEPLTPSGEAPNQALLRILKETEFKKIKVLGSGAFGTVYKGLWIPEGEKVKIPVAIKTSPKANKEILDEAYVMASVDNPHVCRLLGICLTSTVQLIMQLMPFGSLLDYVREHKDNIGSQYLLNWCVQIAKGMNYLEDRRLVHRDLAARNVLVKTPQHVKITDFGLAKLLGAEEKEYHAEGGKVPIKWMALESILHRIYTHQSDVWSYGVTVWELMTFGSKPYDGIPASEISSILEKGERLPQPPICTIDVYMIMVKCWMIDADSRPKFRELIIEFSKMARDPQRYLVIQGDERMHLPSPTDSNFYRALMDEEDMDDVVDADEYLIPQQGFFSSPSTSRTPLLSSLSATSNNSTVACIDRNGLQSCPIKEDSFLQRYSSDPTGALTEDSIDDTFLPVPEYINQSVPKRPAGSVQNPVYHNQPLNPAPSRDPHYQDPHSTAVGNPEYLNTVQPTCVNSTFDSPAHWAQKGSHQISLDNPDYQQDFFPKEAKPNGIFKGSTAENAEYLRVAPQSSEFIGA
Sequence of BaF3-Del_TM_CS cells (P00533 with tags, fused parts or gaps DEL746-750/T790M/C797S, form open): as above
T2 sequence (P00533 695-1210 T790M/C797S/L858R): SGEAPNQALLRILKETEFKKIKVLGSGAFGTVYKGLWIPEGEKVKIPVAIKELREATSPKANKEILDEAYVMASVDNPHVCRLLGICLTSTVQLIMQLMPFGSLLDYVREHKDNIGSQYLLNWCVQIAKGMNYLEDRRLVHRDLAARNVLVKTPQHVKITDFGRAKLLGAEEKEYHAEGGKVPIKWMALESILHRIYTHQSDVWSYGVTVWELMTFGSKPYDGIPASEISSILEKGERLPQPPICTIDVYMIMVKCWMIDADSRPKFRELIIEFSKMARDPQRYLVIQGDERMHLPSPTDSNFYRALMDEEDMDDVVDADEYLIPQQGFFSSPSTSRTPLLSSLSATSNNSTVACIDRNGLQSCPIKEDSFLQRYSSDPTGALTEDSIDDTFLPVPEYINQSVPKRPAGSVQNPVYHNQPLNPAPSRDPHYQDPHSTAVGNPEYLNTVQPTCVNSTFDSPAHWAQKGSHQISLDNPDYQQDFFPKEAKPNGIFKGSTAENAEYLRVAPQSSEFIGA

As for `COc1cc(N2CCC(N3CCN(C)CC3)CC2)ccc1Nc1ncc(C(F)(F)F)c(Nc2cccc3c2N(S(C)(=O)=O)CC3)n1` [Example 31, N^2-(2-methoxy-4-(4-(4-methylpiperazin-1-yl)piperidin-1-yl)phenyl)-N^4-(1-(methylsulfonyl)indolin-7-yl)-5-(trifluoromethyl)pyrimidine-2,4-diamine], the GI50 in test [1] amounted to 522 nM; in test [2], 26.2 nM; in test [6], 109 nM. The IC50 in test [3] is 3.1 nM; in test [4], 0.33 nM; in test [5], 0.47 nM.

Take `COc1cc(N2CCC(N3CCN(C)CC3)CC2)ccc1Nc1ncc(Cl)c(Nc2cccc3c2N(S(C)(=O)=O)C(C)C3)n1` (stereo not drawn) [Example 18, 5-chloro-N^2-(2-methoxy-4-(4-(4-methylpiperazin-1-yl)piperidin-1-yl)phenyl)-N^4-(2-methyl-1-(methylsulfonyl)indolin-7-yl)pyrimidine-2,4-diamine]: the GI50 in test [1] is 422 nM; in test [2], 7.47 nM; in test [6], 16.5 nM. The concentration for half-maximal inhibition (IC50) in test [3] turned out to be 2.3 nM; in test [4] it was 0.4 nM; in test [5] it was 0.68 nM.

`CN(C)C1CCN(c2ccc(Nc3ncc(Cl)c(Nc4cccc5c4N(S(C)(=O)=O)CC5)n3)c3c2CCO3)CC1` [Example 47, 5-chloro-N^2-(4-(4-(dimethylamino)piperidin-1-yl)-2,3-dihydrobenzofuran-7-yl)-N^4-(1-(methylsulfonyl)indolin-7-yl)pyrimidine-2,4-diamine]: the GI50 in test [1] was found to be 630 nM; in test [2], 12.3 nM; in test [6] it was 37.8 nM. In addition, the IC50 in test [3] came out at 3.8 nM; in test [4], 0.85 nM; in test [5] it was 0.3 nM.

For the compound `COc1cc(N2CCC(N3CCN(C)CC3)CC2)ccc1Nc1ncc(Cl)c(Nc2cccc3c2N(C(=O)N(C)C)CC3)n1` [Example 15, 7-((5-chloro-2-((2-methoxy-4-(4-(4-methylpiperazin-1-yl)piperidin-1-yl)phenyl)amino)pyrimidin-4-yl)amino)-N,N-dimethylindoline-1-carboxamide], the GI50 was found to be 4120 nM in test [1], 1800 nM in test [2] and 2030 nM in test [6]. Besides, the concentration for half-maximal inhibition (IC50) in test [3] was 1360 nM; in test [4], 369 nM; in test [5] it was 2200 nM.

For `COc1cc(N2CCC(N3CCN(C)CC3)CC2)ccc1Nc1nc(Nc2cccc3c2N(S(C)(=O)=O)CC3)c2sccc2n1` [Example 75, N^2-(2-methoxy-4-(4-(4-methylpiperazin-1-yl)piperidin-1-yl)phenyl)-N^4-(1-(methylsulfonyl)indolin-7-yl)thieno[3,2-d]pyrimidine-2,4-diamine], the results for the GI50 in test [1], in test [2] and in test [6] were 1200 nM, 349 nM and 459 nM, respectively. Also, the IC50 is 148 nM in test [3], 8.6 nM in test [4] and 8.8 nM in test [5].

For the compound `CCN1CCN(C2CCN(c3ccc(Nc4nc(Nc5cccc6c5N(S(C)(=O)=O)CC6)c5cn[nH]c5n4)cc3F)CC2)CC1` [Example 76, N^6-(4-(4-(4-ethylpiperazin-1-yl)piperidin-1-yl)-3-fluorophenyl)-N^4-(1-(methylsulfonyl)indolin-7-yl)-1H-pyrazolo[3,4-d]pyrimidine-4,6-diamine], the figures for the GI50 in test [1], in test [2] and in test [6] were 987 nM, 90.5 nM and 350 nM, respectively. For the same compound, the IC50 in test [3] is 0.6 nM; in test [4], 1.3 nM; in test [5], 0.88 nM.

With `Cc1cc(Nc2nc(Nc3cccc4c3N(S(C)(=O)=O)CC4)c3cc[nH]c3n2)c(OC(C)C)cc1N1CCC(N2CCN(C)CC2)CC1` [Example 92, N^2-(2-isopropoxy-5-methyl-4-(4-(4-methylpiperazin-1-yl)piperidin-1-yl)phenyl)-N^4-(1-(methylsulfonyl)indolin-7-yl)-7H-pyrrolo[2,3-d]pyrimidine-2,4-diamine], the GI50 in test [1] worked out at 1400 nM; in test [2], 225 nM; in test [6], 504 nM. For the same compound, the IC50 in test [3] is 1530 nM; in test [4], 17 nM; in test [5] it was 14 nM.

As to `CCN1CCN(C2CCN(c3ccc(Nc4nc(Nc5cccc6c5N(S(C)(=O)=O)CC6)c5cc[nH]c5n4)cc3F)CC2)CC1` [Example 77, N^2-(4-(4-(4-ethylpiperazin-1-yl)piperidin-1-yl)-3-fluorophenyl)-N^4-(1-(methylsulfonyl)indolin-7-yl)-7H-pyrrolo[2,3-d]pyrimidine-2,4-diamine], the GI50 in test [1] turned out to be 388 nM; in test [2], 8.3 nM; in test [6] it was 62 nM. For the same compound, the results for the IC50 in test [3], in test [4] and in test [5] were 18 nM, 0.29 nM and 0.33 nM, respectively.

Turning to `COc1cc(N2CCC3(CCN(C)CC3)CC2)c(Cl)cc1Nc1nc(Nc2cccc3c2N(S(C)(=O)=O)CC3)c2cc[nH]c2n1` [Example 96, N^2-(5-chloro-2-methoxy-4-(9-methyl-3,9-diazaspiro[5.5]undecan-3-yl)phenyl)-N^4-(1-(methylsulfonyl)indolin-7-yl)-7H-pyrrolo[2,3-d]pyrimidine-2,4-diamine], the GI50 was determined as 1480 nM in test [1], 29.3 nM in test [2] and 66.5 nM in test [6]. In addition, the IC50 in test [3] amounted to 109 nM; in test [4] it was 1.4 nM; in test [5], 1.7 nM.

On to `CN(C)C1CCN(c2ccc(Nc3nc(Nc4cccc5c4N(S(C)(=O)=O)CC5)c4cc[nH]c4n3)c3c2CCO3)CC1` [Example 124, N^2-(4-(4-(dimethylamino)piperidin-1-yl)-2,3-dihydrobenzofuran-7-yl)-N^4-(1-(methylsulfonyl)indolin-7-yl)-7H-pyrrolo[2,3-d]pyrimidine-2,4-diamine], for which the GI50 in test [1] stood at 460 nM; in test [2], 39.1 nM; in test [6] it was 106 nM. For the same compound, the IC50 in test [3] was 107 nM; in test [4], 1 nM; in test [5], 1 nM.

`CN(C)C1CCN(c2ccc(Nc3ncc(Br)c(Nc4cccc5c4N(S(C)(=O)=O)CC5)n3)c3c2OCO3)CC1` [Example 52, 5-bromo-N^2-(7-(4-(dimethylamino)piperidin-1-yl)benzo[d][1,3]dioxol-4-yl)-N^4-(1-(methylsulfonyl)indolin-7-yl)pyrimidine-2,4-diamine]: the GI50 in test [1] was determined as 145 nM; in test [2], 11.2 nM; in test [6] it was 18.7 nM. Further, the half-inhibitory concentration (IC50) in test [3] came to 5.5 nM; in test [4] it was 0.42 nM; in test [5], 0.12 nM.

For `COc1cc(N2CCN(C)[C@H](C)C2)c(C)cc1Nc1nc(Nc2cccc3c2N(S(C)(=O)=O)CC3)c2cc[nH]c2n1` [Example 107, (R)—N2-(4-(3,4-dimethylpiperazin-1-yl)-2-methoxy-5-methylphenyl)-N4-(1-(methylsulfonyl)indolin-7-yl)-7H-pyrrolo[2,3-d]pyrimidine-2,4-diamine], the values for the GI50 in test [1], in test [2] and in test [6] were 1960 nM, 60.8 nM and 105 nM, respectively. The values for the concentration for half-maximal inhibition (IC50) in test [3], in test [4] and in test [5] were 417 nM, 4.8 nM and 7.1 nM, respectively.

As for `COc1cc(C2CCN(CCO)CC2)c(C)cc1Nc1nc(Nc2cccc3c2N(S(C)(=O)=O)CC3)c2cc[nH]c2n1` [Example 108, 2-(4-(5-methoxy-2-methyl-4-((4-((1-(methylsulfonyl)indolin-7-yl)amino)-7H-pyrrolo[2,3-d]pyrimidin-2-yl)amino)phenyl)piperidin-1-yl)ethan-1-ol], the GI50 in test [1] was 2140 nM; in test [2] it was 181 nM; in test [6], 464 nM. Moreover, the IC50 is 104 nM in test [3], 1.9 nM in test [4] and 2.2 nM in test [5].

Usually IC50 stands for the midpoint of a concentration-inhibition curve.
